Values quoted from earlier work, collected in patent US6534473B1, “Process for the manufacture of tablet detergent compositions” (Unilever Patent Holdings BV, priority 1998, dated 2003).
Where two headings read alike, the source gives them in different places.

[1] = at 20° C., other common materials, by contrast

## O=BO[O-].[Na+] [Sodium perborate anhydrous]
[1]
  Water Solubility: 3.7 g/100 g

## O=P(O)(O)OP(=O)(O)OP(=O)(O)O [Sodium tripolyphosphate anhydrous]
[1]
  Water Solubility: 15 g/100 g

## NC(N)=O [Urea]
At 20° C.
  solubility in water: exceeding 100 gms per 100 ml water
Grams of solid to form a saturated solution in 100 grams of water at 20° C., highly water-soluble materials
  Water Solubility: >100 g/100 g
